Laboratory results as given in patent US20180346505A1, “MONONUCLEOTIDES HAVING A BIOREVERSIBLE DISULFIDE GROUP” (priority 2014, published 2018).

Assays:
[1] = tested on: GT1b S282T NS5B mutant replicon; assay: HCV NS5B mutant replicon assay, GT1b S282T; assay type: cell-based; conditions: Hepatitis C virus, Huh-7, 72 h, read-out: GT1b S282T EC50
Procedure: (§1) The antiviral activity of the test compounds was assessed in the wild type GT1b (Con1), GT1a (H77), and GT1b/2a, GT1b/3a, GT1b/4a and GT1b/5a NS5B chimeric replicons, as well as the NS5B mutant replicons listed in Table 2a and 2b.
The HCV replicon mutants were generated by site-directed mutagenesis (SDM). The SDM was performed by PCR and the PCR fragments were inserted into the backbone replicon construct. The inserted PCR fragments and the mutants were confirmed by sequencing.
(§2) All the replicon assays were luciferase based in Huh-7 cells, either in stable format (GT1b and GT1a) or by transient transfection by electroporation (chimeric and mutant replicons). For a standard HCV replicon assay, stable or transiently transfected Huh-7 cells were seeded in 96-well plates (5,000 cells/well), cultured in DMEM containing 10% FBS, and incubated at 37° C., 5% CO2. On the following day, test compounds were diluted with assay media and added to the appropriate wells (final DMSO concentration in the cell culture medium was 0.5%). Assay reference positive control was included in each run to ensure assay performance. Cells were incubated at 37° C., 5% CO2 for 72 hours, at which time the cells were still sub-confluent. The antiviral activity was determined by measuring replicon reporter firefly luciferase activity using Bright Glo kit in accordance with the protocol provided by the supplier (Promega). The toxicity of the test compounds was assessed by CytoTox-1 cell proliferation assay (Promega). The half maximal effective concentration (EC50) and the half maximal toxic concentration (TC50) values were calculated using the GraphPad Prism software.

[2] = tested on: GT1b/2a NS5B chimeric replicon; assay: HCV replicon assay, GT1b/2a NS5B chimeric replicon, transient transfection; assay type: cell-based, hepatitis C virus; conditions: Hepatitis C virus, Huh-7, 72 h, read-out: GT2a EC50, GT1b/2a NS5B chimeric replicon, Huh-7 cells, luciferase, 72 hours
Procedure: as §1
(§3) To generate HCV NS5B chimeric replicons, the GT1 b replicon was used as a backbone with the NS5B gene replaced with the NS5B gene of GT2a, GT3a, GT4a and GT5a derived from clinical isolates. These NS5B genes were cloned into the GT1b backbone and were confirmed by sequencing.
as §2

[3] = Nucleoside phosphoester stability in simulated gastric fluid; assay type: in vitro ADME; conditions: simulated gastric fluid pH 1.2, 2 μM, 37° C.
Procedure: Test compounds at 2 μM were incubated at 37° C. with simulated gastric fluid (SGF, 0.2% (w/v) sodium chloride in 0.7% (v/v) hydrochloric acid, deionized water, 0.3% pepsin (w/v), pH 1.2). Duplicate samples were used. Samples were removed at 0, 15, 30, 60, 120, 360 and 1440 min, immediately mixed with cold acetonitrile containing internal standard (IS), and stored at −80° C. before analysis. Omeprazole was used as a positive control. Samples were analyzed by LC/MS/MS method, and disappearance of test compound was assessed by comparison of peak area ratios of analyte/IS and reported as % test compound remaining at each time point.

[4] = tested on: GT1b/3a NS5B chimeric replicon; assay: HCV replicon assay, GT1b/3a NS5B chimeric replicon, transient transfection; assay type: cell-based, hepatitis C virus; conditions: Hepatitis C virus, Huh-7, 72 h, read-out: GT3a EC50, GT1b/3a NS5B chimeric replicon, Huh-7 cells, luciferase, 72 hours
Procedure: as §1, §3, §2

[5] = tested on: Huh-7 cells; assay: Toxicity by CytoTox-1 cell proliferation assay (TC50) and selectivity index; assay type: cell-based; conditions: TC50 by CytoTox-1 cell proliferation assay over replicon EC50, Huh-7 cells
Procedure: as §2

Structure (SMILES) | EC50 [1] [nM] | EC50 [2] [nM] | % Remaining ([3]; 0 min) [%] | % Remaining ([3]; 15 min) [%] | % Remaining ([3]; 30 min) [%] | % Remaining ([3]; 60 min) [%] | % Remaining ([3]; 120 min) [%] | % Remaining ([3]; 360 min) [%] | % Remaining ([3]; 1440 min) [%] | EC50 [4] [nM] | Selectivity Index (TC50/EC50) [5]
CC(C)OC(=O)[C@H](C)N[P@](=O)(OC[C@H]1O[C@@H](n2ccc(=O)[nH]c2=O)[C@](C)(F)[C@@H]1O)Oc1ccccc1 [sofosbuvir, reference compound] | 446 to 554 | 36 | 100.00 | 93.47 | 99.50 | 99.63 | 95.33 | 87.35 | 61.36 | 90 to 95 | >100
CC(C)(C)SSc1ccccc1CCOP1(=O)OC[C@H]2O[C@@H](n3ccc(=O)[nH]c3=O)[C@](C)(F)[C@@H]2O1 (single isomer, unassigned) [Compound 7A] | 65 | 3 | 100.00 | 95.13 | 99.01 | 92.49 | 91.52 | 91.60 | 70.36 | 8 | >500
